Experimental data reported in ChEMBL document CHEMBL4251565, “Functionalized 2,1-benzothiazine 2,2-dioxides as new inhibitors of Dengue NS5 RNA-dependent RNA polymerase” (Eur J Med Chem, 2018).
The source made the active and inactive calls. No cut-off for these calls is given here.

How the values were obtained:
[1] = molecular target: Nonstructural protein 5 (Dengue virus) (UniProt V5TFZ2); experiment: Inhibition of DENV3 NS5 RdRp using ss-RNA PolyC as template and GTP as substrate assessed as decrease in dsRNA levels after 1 hr in presence of tritonX100 by PicoGreen-based fluorescence assay; conditions: dengue virus type 3
[2] = tested on: Zika virus; experiment: Antiviral activity against Zika virus clinical strain infected in African green monkey Vero E6 cells assessed as decrease in viral RNA levels up to 20 uM by qRT-PCR method; format: functional, organism-based; conditions: Vero C1008
[3] = tested on: dengue virus type 2; experiment: Antiviral activity against DENV2 clinical strain infected in African green monkey Vero E6 cells assessed as decrease in viral RNA levels up to 20 uM by qRT-PCR method; format: functional, organism-based; conditions: Vero C1008
[4] = molecular target: Nonstructural protein 5 (Dengue virus) (UniProt V5TFZ2); experiment: Binding affinity to DENV3 NT-647-NHS labeled NS5 RdRp after 1 hr in presence of ss-RNA PolyC as template and GTP as substrate by microscale thermophoresis method; conditions: dengue virus type 3
[5] = tested on: dengue virus type 3; experiment: Antiviral activity against DENV3 clinical strain infected in African green monkey Vero E6 cells assessed as decrease in viral RNA levels up to 20 uM by qRT-PCR method; format: functional, organism-based; conditions: Vero C1008
[6] = tested on: West Nile virus; experiment: Antiviral activity against WNV clinical strain infected in African green monkey Vero E6 cells assessed as decrease in viral RNA levels up to 20 uM by qRT-PCR method; format: functional, organism-based; conditions: Vero C1008
[7] = tested on: O=C(OC1=CS(=O)(=O)Nc2ccc(Oc3ccccc3Br)cc21)c1ccc(F)c(F)c1; experiment: Mixed type inhibition of DENV3 NS5 RdRp using increasing concentration of ss-RNA PolyC as template assessed as Km for substrate after 1 hr in presence of GTP substrate after 1 hr by Lineweaver-Burk double reciprocal plot analysis; conditions: dengue virus type 3
[8] = tested on: O=C(OC1=CS(=O)(=O)Nc2ccc(Oc3ccccc3Br)cc21)c1ccc(F)c(F)c1; experiment: Mixed type inhibition of DENV3 NS5 RdRp using increasing concentration of GTP as substrate assessed as Km for substrate after 1 hr in presence of ss-RNA PolyC template by Lineweaver-Burk double reciprocal plot analysis; conditions: dengue virus type 3
[9] = tested on: O=C(OC1=CS(=O)(=O)Nc2ccc(Oc3ccccc3Br)cc21)c1ccc(F)c(F)c1; experiment: Mixed type inhibition of DENV3 NS5 RdRp using increasing concentration of ss-RNA PolyC as template assessed as enzyme Vmax after 1 hr in presence of GTP substrate by Lineweaver-Burk double reciprocal plot analysis; conditions: dengue virus type 3
[10] = tested on: O=C(OC1=CS(=O)(=O)Nc2ccc(Oc3ccccc3Br)cc21)c1ccc(F)c(F)c1; experiment: Mixed type inhibition of DENV3 NS5 RdRp using increasing concentration of GTP as substrate assessed as enzyme Vmax after 1 hr in presence of ss-RNA PolyC template by Lineweaver-Burk double reciprocal plot analysis; conditions: dengue virus type 3

Compound | inhibition [1] | Activity [2] | Activity [3] | Activity [4] | Activity [5] | Activity [6] | Km [7] | Km [8] | Vmax [9] | Vmax [10]
O=C(OC1=CS(=O)(=O)Nc2ccc(Oc3ccccc3Br)cc21)c1ccc(F)c(F)c1 | Active | inactive | inactive | Active | inactive | inactive | – | – | – | –
Nonstructural protein 5 (Dengue virus), V5TFZ2 | – | – | – | – | – | – | 0.907 µM | 5.29 µM | 23.2 nM/min | 15.8 nM/min
